Results reported in article PMC7395062, “Multiparametric assessment of mitochondrial respiratory inhibition in HepG2 and RPTEC/TERT1 cells using a panel of mitochondrial targeting agrochemicals” (Archives of Toxicology, 2020).
Like-named read-outs stand apart in the source and are kept apart here.

How the values were obtained:
[1] = tested on: HepG2 cells; test: Resazurin reduction viability assay, 2D HepG2; type: cell-based, human; settings: HepG2, galactose
Description: The HepG2 cell line, a human hepatocellular carcinoma, was obtained from ATCC (American Type Culture Collection, Wesel, Germany). […] Cells were maintained at 37 °C in a 5% CO2 humidified atmosphere, fed every 2 to 3 days and passaged at approximately 80% confluence. […] For galactose experiments, the medium was refreshed 24 h before exposure with galactose-containing medium. […] Culture medium was refreshed every 3–4 days and the culture was maintained for 21 days prior to dosing.
(§1) The conversion of resazurin to fluorescent resorufin was measured in a plate reader at excitation/emission 540/590 nm.
(§2) All results are average of 2–3 independent experiments.

[2] = tested on: RPTEC/TERT1 cells; test: Seahorse mitostress assay in intact cells (OCR/ECAR), RPTEC/TERT1; type: cell-based, human
Description: The Seahorse bioanalyzer simultaneously measures cellular oxygen consumption rates (OCR) and extracellular acidification rates (ECAR). The mitostress assay utilises a sequential addition of modulators of the oxidative phosphorylation to assess key parameters of mitochondrial function. […] It is worth noting here that RPTEC/TERT1 require longer differentiation time in the Seahorse plates, potentially due to sub-optimum gas exchange in the Seahorse culture plates. HepG2 cells were cultured at the density of 15,000 cells/well on collagen-coated (2.5 µg/µL collagen IV, Merck, C7521) Seahorse cell culture microplates two days prior to analysis.
The mitostress test was performed as described (Eakins et al. [2016]; Tilmant et al. [2018]). Immediately before the assay, cell culture medium was replaced with 180 µL of Seahorse XF Base Medium without phenol red (Agilent, 1003335-100), supplemented with 10 mM D-glucose (Merck, G7021), 5 mM HEPES (Merck, H4034), 2 mM sodium pyruvate (Merck, P5281) and 1 mM L-glutamine (Merck, G8540). Cells were allowed to equilibrate for 45 min in a non-CO2 37 °C incubator. […] OCR was measured five times after test compound injection and three times for all injections. Each measurement consisted of a 3 min mix and subsequent 3 min read cycle. […]

[3] = tested on: CII/CIII (succinate dehydrogenase / cytochrome bc1 complex); type: cell-based, human; settings: permeabilised HepG2; sequential substrates/inhibitors
Description: The test compound is injected and OCR is measured. […] OCR is measured for the second time. […] A third and final OCR measurement is conducted.
Compounds were injected sequentially and OCR was measured twice. […] ETC inhibition is determined in decreased OCR.
as §2

[4] = tested on: HepG2 cells; test: Seahorse mitostress assay in intact cells (OCR/ECAR), HepG2; settings: seen at 2 and 10 µM
[5] = tested on: RPTEC/TERT1 cells; test: Resazurin reduction viability assay, RPTEC/TERT1; type: cell-based, human
Description: These cells were obtained under licence from Evercyte GmBH, Vienna Austria. […] For experiments, cells were plated in a required format plate, allowed to become contact-inhibited and fed 24 h prior to treatment exposure. For experiments in galactose condition, cells were fed 24 h prior to experiment with culture medium (custom made DMEM/F12, PromoCell) in which 5 mM glucose was replaced with 5 mM galactose (Merck, G5388).
as §1, §2

[6] = tested on: HepG2 cells; test: Cell death (PI staining) in 2D HepG2 by live confocal imaging; type: cell-based, human
Description: After 1 h incubation at 37° C, the medium was removed and 25 μL complete DMEM containing 0.2 μM Rho123 and 100 nM propidium iodide (PI) (Merck, P4170) was added, followed by 25 μL of medium containing 2×, the desired concentration of test compound. […] The confocal imaging was performed using a Nikon TiE2000 with perfect focus system and xy-stage (Nikon, Amsterdam, The Netherlands). Quantification of the Hoechst, Rho123 and PI signal intensity and localization were performed using CellProfiler version 2.1.1 (Broad Institute, Cambridge, USA). […] The PI-positive nuclei were identified by masking the previous segmented nuclei and the PI signal. More than 10% overlap was considered as PI positive. All CellProfiler analyses were stored as HDF5 files. The combination of an internally developed R script, run in Rstudio (Boston, USA), was used for data extraction including Rho123 signal intensity, fraction PI positive and nuclear count.
as §2

[7] = tested on: RPTEC/TERT1 cells; test: Mitochondrial membrane potential (MMP) assay with JC-1; type: cell-based, human; settings: RPTEC/TERT1, JC-1, 24 h
Description: JC-1 is a single-excitation dual-emission fluorescence-based assay that allows for ratiometric semiquantitative assessment of mitochondrial membrane potential (Perry et al. [2011]). For quantification of changes in MMP cells were pre-loaded, for approximately 1.5 h, with the JC-1 pre-loading solution containing 9 µM JC-1 (Invitrogen, 65-0851-38), 9 µL/mL Pluronic F-127 10% in water (Invitrogen, P6866) and 5 µM Cyclosporine A (CsA) (Merck, 30024), a P-glycoprotein (P-gp) inhibitor, to prevent dye extrusion due to the expression of efflux pumps in RPTEC/TERT1 cell line. After this incubation time, cells were washed and exposed to test compounds dissolved in a JC-1 treatment solution containing 0.5 µM JC-1, 1.5 µL/mL Pluronic F-127 and 1 µM CsA for the desired time. We have previously determined that CsA at up to 5 µM has no adverse effect on RPTEC/TERT1 cells for up to 14 days (Wilmes et al. [2013]). Fluorescence was measured in a plate reader at excitation 492 nm and dual emission, 535 nm for monomers and 590 nm for dimers. Results are presented as the dimer/monomer ratio and expressed as percentage of untreated samples.
(§3) All results are average of 2–3 independent experiments. […] Leist, University of Konstanz (Krebs et al. [2020]).

[8] = tested on: HepG2 cells; test: Mitochondrial membrane potential (Rho123) live confocal imaging; type: cell-based, human; settings: HepG2, Rho123, 24 h
Description: Rhodamine 123 (Rho123) (Merck, R8004) was used in a live confocal imaging setting for the assessment of effects at MMP. Rho123 localises to mitochondria and the decline in fluorescence is proportional to a decrease in MMP (Johnson et al. [1980], [1981]). HepG2 were seeded at 10,000 cells/30 μL/well in a 384-wells μCLEAR® black plate (Greiner Bio-One, 781 091). Two days post-seeding, 30 μL complete HepG2 culture medium, containing 200 ng/μL Hoechst 33342 (Life technologies, H1399) and 1 μM Rho123, was added to the medium. After 1 h incubation at 37° C, the medium was removed and 25 μL complete DMEM containing 0.2 μM Rho123 and 100 nM propidium iodide (PI) (Merck, P4170) was added, followed by 25 μL of medium containing 2×, the desired concentration of test compound. The intensity of Hoechst, Rho123 and PI, was monitored using live confocal imaging for 24 h using the 408, 488 and 561 nm laser, respectively. The confocal imaging was performed using a Nikon TiE2000 with perfect focus system and xy-stage (Nikon, Amsterdam, The Netherlands). Quantification of the Hoechst, Rho123 and PI signal intensity and localization were performed using CellProfiler version 2.1.1 (Broad Institute, Cambridge, USA). The nuclear identification based on the Hoechst signal was performed using an internally created segmentation module (Di et al. [2012]), followed by a cytoplasmic identification based on a specific distance from these nuclei. The PI-positive nuclei were identified by masking the previous segmented nuclei and the PI signal. More than 10% overlap was considered as PI positive. All CellProfiler analyses were stored as HDF5 files. The combination of an internally developed R script, run in Rstudio (Boston, USA), was used for data extraction including Rho123 signal intensity, fraction PI positive and nuclear count.
as §3

Cc1ccc(-c2c(Cl)nc(C#N)n2S(=O)(=O)N(C)C)cc1 [Cyazofamid]
Statistical significance, Viability Galactose settings Resazurin ([1]; h = 10 µM): * (*p < 0.05 (Tables 3, 4)) | Uncoupling effect in mitostress OCR ([2]; RPTEC/TERT1, seen at 2 and 10 µM): strong uncoupling effect | ETC-complex specificity pattern (CII/CIII) [3]: CII inhibition pattern but only at 100 µM | Uncoupling effect in mitostress OCR [4]: strong uncoupling effect

Cc1nn(C)c(Oc2ccccc2)c1C=NOCc1ccc(C(=O)OC(C)(C)C)cc1 [Fenpyroximate]
Statistical significance, Viability Glucose settings Resazurin [5]: * (*p < 0.05 (Tables 3, 4)) | Statistical significance, Viability Galactose settings Resazurin ([5]; RPTEC/TERT1, e = 0.08 µM): * (*p < 0.05 (Tables 3, 4)) | Statistical significance, Viability Galactose settings Resazurin ([5]; RPTEC/TERT1, g = 7 µM): * (*p < 0.05 (Tables 3, 4)) | Statistical significance, Viability Galactose settings Resazurin ([5]; RPTEC/TERT1, h = 10 µM): * (*p < 0.05 (Tables 3, 4)) | Statistical significance, Viability Glucose settings Resazurin ([5]; RPTEC/TERT1, glucose, g = 7 µM): * (*p < 0.05 (Tables 3, 4)) | Statistical significance, Viability Glucose settings Resazurin ([5]; RPTEC/TERT1, glucose, h = 10 µM): * (*p < 0.05 (Tables 3, 4)) | Statistical significance, Viability Galactose settings Resazurin ([1]; d = 0.016 µM): * (*p < 0.05 (Tables 3, 4)) | Statistical significance, Viability Galactose settings Resazurin ([1]; e = 0.08 µM): * (*p < 0.05 (Tables 3, 4)) | Statistical significance, Viability Galactose settings Resazurin ([1]; g = 7 µM): * (*p < 0.05 (Tables 3, 4)) | Statistical significance, Viability Galactose settings Resazurin ([1]; h = 10 µM): * (*p < 0.05 (Tables 3, 4)) | Statistical significance, Cell death (% 24h) Galactose [6]: * (*p < 0.05 (Tables 3, 4))

CC(C)Oc1cccc(NC(=O)c2ccccc2C(F)(F)F)c1 [Flutolanil]
Effect on MMP [7]: actually increased it | Effect on MMP [8]: decreased MMP, but only at the highest concentrations

Cc1ccccc1C(=O)Nc1cccc(OC(C)C)c1 [Mepronil]
Effect on MMP [7]: actually increased it | Effect on MMP [8]: decreased MMP, but only at the highest concentrations

Cc1nc(C(F)(F)F)c(C(=O)Nc2c(Br)cc(OC(F)(F)F)cc2Br)s1 [Thifluzamide]
Statistical significance, Viability Galactose settings Resazurin ([1]; h = 10 µM): * (*p < 0.05 (Tables 3, 4)) | Effect on MMP [8]: decreased MMP, but only at the highest concentrations | Effect on maximal respiration ([2]; RPTEC/TERT1, higher concentrations): tendency to increase maximal respiration
